Measured values: patent US20140045856A1, “4-Methyl-2,3,5,9,9b-pentaaza-cyclopenta[a]naphthalenes” (BOEHRINGER INGELHEIM INTERNATIONAL GMBH, priority 2012, published 2014)
Like-named read-outs stand apart in the source and are kept apart here.

Tests used:
[1] = Metabolic stability in pooled liver microsomes; format: in vitro ADME; conditions: human liver microsomes, 37° C., 1 mg/mL microsomal protein, test compound 1 μM, NADPH; for half-life at 1 μM: pooled liver microsomes, pH 7.6, read-out: Half-life - t½
Description: The metabolic stability of the compounds according to the invention has been investigated as follows:
The metabolic degradation of the test compound was assayed at 37° C. with pooled liver microsomes from various species. The final incubation volume of 100 μl per time point contains TRIS buffer pH 7.6 at room temperature (0.1 M), magnesium chloride (5 mM), microsomal protein (1 mg/mL for human and dog, 0.5 mg/mL for other species) and the test compound at a final concentration of 1 μM. Following a short preincubation period at 37° C., the reactions were initiated by addition of betanicotinamide adenine dinucleotide phosphate, reduced form (NADPH, 1 mM), and terminated by transferring an aliquot into solvent after different time points. […] The half-life was determined by the slope of the semi-logarithmic plot of the concentration-time profile.

hERG channel = hERG channel (Homo sapiens, UniProt Q12809); experiment: hERG channel assay (whole-cell patch clamp, HEK293 cells transfected with hERG cDNA); format: cell-based; conditions: 35° C.
Sequence of hERG channel (Q12809 whole entry): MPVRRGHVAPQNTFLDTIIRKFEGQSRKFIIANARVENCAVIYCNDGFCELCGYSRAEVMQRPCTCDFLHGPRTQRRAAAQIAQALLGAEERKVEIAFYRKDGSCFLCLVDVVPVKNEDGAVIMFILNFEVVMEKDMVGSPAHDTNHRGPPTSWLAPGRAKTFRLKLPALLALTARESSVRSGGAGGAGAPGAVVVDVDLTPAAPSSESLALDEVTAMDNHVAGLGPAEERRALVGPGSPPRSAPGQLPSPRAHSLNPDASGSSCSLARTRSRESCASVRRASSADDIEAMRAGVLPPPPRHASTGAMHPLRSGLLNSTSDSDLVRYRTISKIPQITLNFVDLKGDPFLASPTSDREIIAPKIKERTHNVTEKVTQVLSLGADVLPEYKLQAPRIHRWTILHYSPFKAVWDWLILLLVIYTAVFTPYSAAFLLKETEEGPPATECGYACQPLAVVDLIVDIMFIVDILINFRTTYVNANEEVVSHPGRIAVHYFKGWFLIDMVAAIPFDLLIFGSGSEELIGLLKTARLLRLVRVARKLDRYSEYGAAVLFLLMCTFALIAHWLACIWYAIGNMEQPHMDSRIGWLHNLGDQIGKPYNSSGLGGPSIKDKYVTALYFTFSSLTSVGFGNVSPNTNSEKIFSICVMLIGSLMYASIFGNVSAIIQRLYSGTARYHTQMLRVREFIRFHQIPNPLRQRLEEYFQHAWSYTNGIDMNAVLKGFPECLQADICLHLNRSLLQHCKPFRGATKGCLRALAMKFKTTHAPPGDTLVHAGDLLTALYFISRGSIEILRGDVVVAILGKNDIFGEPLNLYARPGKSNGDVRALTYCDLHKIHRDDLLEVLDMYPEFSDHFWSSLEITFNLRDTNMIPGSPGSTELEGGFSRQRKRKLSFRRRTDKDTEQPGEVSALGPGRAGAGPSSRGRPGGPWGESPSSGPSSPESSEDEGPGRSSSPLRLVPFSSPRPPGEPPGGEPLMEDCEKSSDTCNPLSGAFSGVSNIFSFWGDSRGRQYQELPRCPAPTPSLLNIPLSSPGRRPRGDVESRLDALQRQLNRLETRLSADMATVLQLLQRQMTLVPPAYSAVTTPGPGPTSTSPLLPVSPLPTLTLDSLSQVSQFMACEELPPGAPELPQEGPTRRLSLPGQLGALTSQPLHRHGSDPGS
From the text: hERG (Human Ether-à-Go-Go-Related Gene)-Channel Assay
hERG channel inhibition of compounds of the present invention has been investigated as follows:
HEK (human embryonic kidney) 293 cells were stably transfected with hERG cDNA. Cells were superfused with a bath solution containing (mM): NaCl (137), KCl (4.0), MgCl2 (1.0), CaCl2 (1.8), Glucose (10), HEPES (10), pH 7.4 with NaOH. Patch pipettes were made from borosilicate glass tubing using a horizontal puller and filled with pipette solution containing (mM): K-aspartate (130), MgCl2 (5.0), EGTA (5.0), K2ATP (4.0), HEPES (10.0), pH 7.2 with KOH. Resistance of the microelectrodes was in the range between 2 and 5 MΩ.
Stimulation and Recording:
Membrane currents were recorded using an EPC-10 patch clamp amplifier and PatchMaster software. hERG-mediated membrane currents were recorded at 35° C., using the whole-cell configuration of the patch-clamp technique. Transfected HEK293 cells were clamped at a holding potential of −60 mV and hERG-mediated inactivating tail currents were elicited using a pulse pattern with fixed amplitudes (activation/inactivation: 40 mV for 2000 ms; recovery: […]; ramp to 40 mV in 2 ms; inactivating tail current: 40 mV for 50 ms) repeated at 15 s intervals. During each inter-pulse interval 4 pulses scaled down by a factor of 0.2 were recorded for a P/n leak subtraction procedure. […] compensation was employed up to a level that safely allowed recording devoid of ringing.
Compound Preparation and Application:
The different concentrations of the test compound were applied sequentially on each of the different cells investigated. A steady state level of baseline current was measured for at least 6 sweeps prior to the application of the first test compound concentration.
The test compound was dissolved in DMSO to yield a master stock solution which was diluted further in DMSO to stock solutions needed for the lower concentrations. Final dilutions in extracellular buffer were prepared freshly from these stocks by a 1:1000 dilution step each before starting the experiments.
Data analysis and IC50 determination:
Peak current amplitudes were measured 3 ms after the ramp to +40 mV. For baseline and each concentration the peak currents of the three last sweeps before application of the next concentration were averaged. Residual currents ( 1/10) were calculated for each cell as the fraction of actual average peak current and average baseline peak current.
The logistic concentration-response curve of the following form was fitted to the residual current data using a genetic algorithm:
C: actual concentration of compound (in μM) IC50: half-inhibitory concentration (in μM) p: Hill slope

PDE2A = PDE2A (Homo sapiens, UniProt O00408); experiment: PDE 2A assay with fluorescent substrate (IMAP, fluorescence polarization); format: biochemical; conditions: read-out: PDE2 IC50
Sequence of PDE2A (O00408 whole entry, species assumed): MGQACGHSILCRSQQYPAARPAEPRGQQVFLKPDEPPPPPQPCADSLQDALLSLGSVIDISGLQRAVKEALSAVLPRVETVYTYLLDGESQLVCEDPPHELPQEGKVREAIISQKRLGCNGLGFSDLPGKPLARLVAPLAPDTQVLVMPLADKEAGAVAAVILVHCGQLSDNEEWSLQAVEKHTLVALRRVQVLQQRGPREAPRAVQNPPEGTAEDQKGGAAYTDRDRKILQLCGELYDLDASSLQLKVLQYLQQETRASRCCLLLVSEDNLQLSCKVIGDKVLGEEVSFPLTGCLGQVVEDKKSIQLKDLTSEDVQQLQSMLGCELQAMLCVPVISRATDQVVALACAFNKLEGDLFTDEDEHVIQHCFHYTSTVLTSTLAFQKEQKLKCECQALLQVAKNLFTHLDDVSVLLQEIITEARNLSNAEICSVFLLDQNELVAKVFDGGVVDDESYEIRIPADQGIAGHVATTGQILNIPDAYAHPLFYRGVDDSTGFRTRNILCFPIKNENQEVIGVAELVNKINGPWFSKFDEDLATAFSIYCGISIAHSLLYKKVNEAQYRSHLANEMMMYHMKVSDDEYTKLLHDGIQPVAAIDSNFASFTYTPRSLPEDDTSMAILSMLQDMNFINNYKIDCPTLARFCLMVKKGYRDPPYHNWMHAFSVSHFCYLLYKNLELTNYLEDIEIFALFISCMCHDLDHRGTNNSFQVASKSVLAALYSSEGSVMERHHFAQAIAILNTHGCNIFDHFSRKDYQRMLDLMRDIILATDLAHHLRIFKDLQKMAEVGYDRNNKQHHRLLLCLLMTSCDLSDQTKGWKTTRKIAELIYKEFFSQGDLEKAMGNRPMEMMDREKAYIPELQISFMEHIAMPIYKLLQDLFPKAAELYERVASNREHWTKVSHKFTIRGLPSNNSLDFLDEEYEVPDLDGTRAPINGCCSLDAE
From the text: (§1) c) Phosphodiesterase (PDE) 2A and 10 Assay with Fluorescent Substrate
(§2) The PDE reaction cleaves cAMP to AMP. The IMAP system (Molecular Device) using fluorescence polarization (FP) as detection principle was used to measure enzyme activity. A fluorescent labeled cAMP was used as substrate for the reaction, generating a labeled AMP. The fluorescent AMP binds specifically to the large M(III)-based nano-particles which reduces the rotational speed of the substrate and thus increases its polarization.
(§3) The inhibition of PDE 2A or 10 enzyme activity was assessed using IMAP-Phosphodiesterase-cAMP fluorescence labeled substrate (Molecular Devices, Order No. R7506), IMAP TR-FRET screening express (Molecular Devices, Order No. R8160, the TR-FRET component will not be used) and PDE 2A or PDE10 protein expressed upon baculovirus infection in SF9 cells. The cells were incubated after infection for ˜3 days and protein production was confirmed by Western Blot. The cells were collected by centrifugation and the pellet frozen in liquid nitrogen before it was resuspended in PBS containing 1% Triton X-100 and protease inhibitors.
(§4) All reactions were performed in 384 well plates, Perkin Elmer black optiplates and IMAP reaction buffer with 0.1% Tween20 (kit component)
(§5) Compounds were serial diluted in DMSO. With an intermediate dilution step with reaction buffer DMSO concentration was reduced to achieve 1% DMSO in the assay reaction. Setup of the assay started with 10 μl enzyme (˜10 ng/well, depending on prep. batch), 5 μl compound, reaction was started by addition of 5 μl labeled cAMP (30 nM, final concentration), immediately mixed for 15 seconds on a Eppendorf mixmate (2000 rpm) followed by an incubation at room temperature for 90 minutes in the dark. Reaction is stopped by adding of 60 μl binding buffer for FP/cAMP (kit component).
(§6) Each assay plate contained wells with vehicle controls (1% DMSO) for the measurement of non-inhibited reaction (=100% control) and wells without enzyme as 0% controls.

PDE10 = PDE10 (Homo sapiens, UniProt Q9Y233); experiment: PDE10 assay with fluorescent substrate (IMAP, fluorescence polarization); format: biochemical
Sequence of PDE10 (Q9Y233 whole entry, species assumed): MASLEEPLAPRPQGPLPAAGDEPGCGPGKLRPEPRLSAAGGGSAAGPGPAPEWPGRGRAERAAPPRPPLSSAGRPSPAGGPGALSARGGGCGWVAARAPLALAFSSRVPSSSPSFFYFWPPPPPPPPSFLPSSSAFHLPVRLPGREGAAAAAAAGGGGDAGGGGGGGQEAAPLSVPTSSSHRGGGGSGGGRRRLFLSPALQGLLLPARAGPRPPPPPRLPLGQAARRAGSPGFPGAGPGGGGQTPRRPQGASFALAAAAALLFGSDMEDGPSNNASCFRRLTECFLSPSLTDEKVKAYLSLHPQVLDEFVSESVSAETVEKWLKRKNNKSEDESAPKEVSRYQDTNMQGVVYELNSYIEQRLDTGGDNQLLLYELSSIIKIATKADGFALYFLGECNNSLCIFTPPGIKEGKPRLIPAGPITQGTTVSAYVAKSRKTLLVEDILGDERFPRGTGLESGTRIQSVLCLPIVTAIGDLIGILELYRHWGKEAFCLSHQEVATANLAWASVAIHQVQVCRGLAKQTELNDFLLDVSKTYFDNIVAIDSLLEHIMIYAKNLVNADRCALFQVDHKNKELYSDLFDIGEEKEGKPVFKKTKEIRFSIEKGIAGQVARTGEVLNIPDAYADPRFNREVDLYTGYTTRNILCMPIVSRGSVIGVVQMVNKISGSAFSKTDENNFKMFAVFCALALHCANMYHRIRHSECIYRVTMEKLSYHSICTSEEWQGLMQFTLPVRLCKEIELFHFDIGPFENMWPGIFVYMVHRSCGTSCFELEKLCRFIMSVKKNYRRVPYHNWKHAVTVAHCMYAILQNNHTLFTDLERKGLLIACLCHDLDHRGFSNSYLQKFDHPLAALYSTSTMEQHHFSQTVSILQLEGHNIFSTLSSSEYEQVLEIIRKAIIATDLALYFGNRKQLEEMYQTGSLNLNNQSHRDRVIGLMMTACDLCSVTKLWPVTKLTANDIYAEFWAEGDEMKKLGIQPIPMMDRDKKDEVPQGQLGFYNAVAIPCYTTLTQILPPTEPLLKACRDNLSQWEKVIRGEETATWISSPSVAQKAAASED
From the text: as §1, §2, §3, §4, §5, §6

[2] = Animal experiments and sample analysis: plasma, brain and CSF concentration; format: in vivo; conditions: rat; for concentration at 0.5 h / Kp at 0.5 h: 0.5 h between administration and CSF sampling; for concentration at 0.5 h / concentration at 2 h: doses of 10.0 or 5 μmol/kg; for concentration at 2 h / Kp at 2 h: 2 h between administration and CSF sampling
Description: Test compounds were administered to animals (rat) different routes at doses of 10.0 or 5 μmol/kg, (both oral and intravenous). After compound administration, the animals were sacrificed in a CO2 chamber and CSF samples were carefully collected by puncture of the cisterna magna. Immediately after CSF sampling, blood was taken by heart puncture and brains were dissected out. Blood was collected in EDTA-coated microvettes and plasma was prepared by centrifugation. Concentration of the test compounds in plasma, CSF or brain homogenate was determined using HPLC-MS-MS.

[3] = brain, read-out: c(brain)/c(plasma)

| Half-life - t½ [1] | IC50 (PDE2A) | IC50 (PDE10) | Compound | IC50 (hERG channel) | also measured |
| --- | --- | --- | --- | --- | --- |
| 2.17 h | – | – | Cc1nc2cccnc2n2c(-c3cc(OC4COCC4O)ccc3Cl)nnc12 (racemic) [Example 55] | > 10000 nM | – |
| 2.17 h | 36 nM | 7720 nM | Cc1ccc(C2(O)CCOCC2O)cc1-c1nnc2c(C)nc3ccc(C4CC4)nc3n12 (racemic) [Example 104] | – | – |
| 2.17 h | 143 nM | 663 nM | Cc1nc2cccnc2n2c(-c3cc(OC4COCCC4O)ccc3Cl)nnc12 (single isomer, unassigned) [Example 58] | – | – |
| 2.17 h | 125 nM | 1510 nM | Cc1nc2cccnc2n2c(-c3cc(C4(O)CCOC4)ccc3Cl)nnc12 (single isomer, unassigned) [Example 99] | – | – |
| 2.17 h | 40 nM | 3230 nM | Cc1ccc(C2(O)CCOCC2O)cc1-c1nnc2c(C)nc3ccc(C4CC4)nc3n12 (single isomer, unassigned) [Example 104a] | – | – |
| 2.17 h | 30 nM | 9760 nM | Cc1ccc(C2(O)CCOCC2O)cc1-c1nnc2c(C)nc3ccc(C4CC4)nc3n12 (single isomer, unassigned) [Example 104b] | – | – |
| 2.17 h | – | – | Cc1nc2cccnc2n2c(-c3cc(OC[C@H](C)O)ccc3Cl)nnc12 [Example 18] | > 10000 nM | concentration at 0.5 h ([2]; brain, read-out: conc brain): 351 nM; concentration at 0.5 h ([2]; plasma, read-out: conc plasma): 1220 nM; concentration at 0.5 h ([2]; read-out: conc CSF): 163 nM |
| – | – | – | Cc1ccc2nc(C)c3nnc(-c4cc(OCCO)ccc4Cl)n3c2n1 [Example 28] | > 10000 nM | – |
| 2.17 h | – | – | Cc1ccc2nc(C)c3nnc(-c4cc(OC5CCOCC5)ccc4Cl)n3c2n1 [Example 32] | > 10000 nM | – |
| – | – | 7390 nM | Cc1nc2ccc(C3CC3)nc2n2c(-c3cc(OC4CCOCC4)ccc3Cl)nnc12 [Example 32a] | > 10000 nM | – |
| 2.17 h | 156 nM | 6040 nM | Cc1nc2cccnc2n2c(-c3cc(OCC(C)(C)O)ccc3Cl)nnc12 [Example 44] | – | concentration at 0.5 h ([2]; brain, read-out: conc brain): 670 nM; Kp at 0.5 h [2, 3]: 0.31; concentration at 0.5 h ([2]; plasma, read-out: conc plasma): 2190 nM; concentration at 0.5 h ([2]; read-out: conc CSF): 228 nM; Kp at 0.5 h ([2]; read-out: c(CSF)/c(plasma)): 0.1 |
| 2.17 h | – | – | Cc1nc2ccc(C3CC3)nc2n2c(-c3cc(OCC(C)(C)O)ccc3Cl)nnc12 [Example 45] | > 10000 nM | concentration at 2 h ([2]; brain, read-out: conc brain): 183 nM; concentration at 2 h ([2]; plasma, read-out: conc plasma): 801 nM; concentration at 2 h ([2]; read-out: conc CSF): 25 nM |
| 2.17 h | 8 nM | – | Cc1ccc(OCC(C)(C)O)cc1-c1nnc2c(C)nc3ccc(C4CC4)nc3n12 [Example 48] | > 10000 nM | – |
| 2.17 h | 194 nM | 7120 nM | Cc1ccc(OCC2(O)CCC2)cc1-c1nnc2c(C)nc3cccnc3n12 [Example 50] | – | – |
| 2.17 h | 11 nM | 1200 nM | Cc1nc2ccc(C(C)C)nc2n2c(-c3cc(OCC(C)(C)O)ccc3F)nnc12 [Example 52] | – | – |
| 2.17 h | 58 nM | 798 nM | Cc1nc2cc(C(C)C)cnc2n2c(-c3cc(OCC(C)(C)O)ccc3Cl)nnc12 [Example 54] | – | – |
| – | 8 nM | 936 nM | Cc1ccc2nc(C)c3nnc(-c4cc(C(O)C(C)C)ccc4Cl)n3c2n1 (stereo not drawn) [Example 59] | – | half-life at 1 μM [1]: 0.817 h |

| Half-life - t½ [1] | IC50 (PDE2A) | IC50 (PDE10) | Compound | IC50 (hERG channel) | also measured |
| --- | --- | --- | --- | --- | --- |
| 2.17 h | 60 nM | 1710 nM | Cc1ccc2nc(C)c3nnc(-c4cc(C(C)O)ccc4Cl)n3c2n1 (stereo not drawn) [Example 63] | – | – |
| – | 3 nM | 674 nM | Cc1nc2ccc(C3CC3)nc2n2c(-c3cc(CCC(C)(C)O)ccc3F)nnc12 [Example 66] | > 10000 nM | – |
| 2.17 h | 175 nM | 3900 nM | Cc1ccc(CCC(C)(C)O)cc1-c1nnc2c(C)nc3cccnc3n12 [Example 67] | – | – |
| – | 2 nM | 1010 nM | Cc1ccc(CCC(C)(C)O)cc1-c1nnc2c(C)nc3ccc(C4CC4)nc3n12 [Example 68] | 8300 nM | – |
| 2.17 h | 163 nM | 8620 nM | Cc1nc2cccnc2n2c(-c3cc(C(C)(C)O)ccc3Cl)nnc12 [Example 70] | – | concentration at 2 h ([2]; brain, read-out: conc brain): 695 nM; Kp at 2 h [2, 3]: 0.29; concentration at 2 h ([2]; plasma, read-out: conc plasma): 2380 nM; concentration at 2 h ([2]; read-out: conc CSF): 276 nM; Kp at 2 h ([2]; read-out: c(CSF)/c(plasma)): 0.12 |
| 2.17 h | – | – | Cc1ccc(C(C)(C)O)cc1-c1nnc2c(C)nc3ccc(C4CC4)nc3n12 [Example 75] | > 10000 nM | concentration at 2 h ([2]; brain, read-out: conc brain): 383 nM; Kp at 2 h [2, 3]: 0.34; concentration at 2 h ([2]; plasma, read-out: conc plasma): 1130 nM; concentration at 2 h ([2]; read-out: conc CSF): 31 nM; Kp at 2 h ([2]; read-out: c(CSF)/c(plasma)): 0.03 |
| – | 10 nM | 5410 nM | Cc1nc2ccc(C3CC3)nc2n2c(-c3cc(CC(C)(C)O)ccc3F)nnc12 [Example 80] | > 10000 nM | – |
| 2.17 h | 199 nM | 5620 nM | Cc1nc2cccnc2n2c(-c3cc(CC(C)(C)O)ccc3Cl)nnc12 [Example 82] | > 10000 nM | – |
| – | 4 nM | 8820 nM | Cc1nc2ccc(C3CC3)nc2n2c(-c3cc(CC(C)(C)O)ccc3Cl)nnc12 [Example 83] | > 10000 nM | – |
| – | 6 nM | 565 nM | Cc1nc2ccc(C3CC3)nc2n2c(-c3cc(C4(O)CCC4)ccc3F)nnc12 [Example 84] | 6300 nM | – |
| 2.17 h | 6 nM | 4320 nM | Cc1nc2ccc(C3CC3)nc2n2c(-c3cc(C(C)(C)O)ccc3Cl)nnc12 [Example 85] | > 10000 nM | – |
| 2.17 h | 74 nM | 2590 nM | Cc1nc2cccnc2n2c(-c3cc(C4(O)CCC4)ccc3Cl)nnc12 [Example 87] | > 10000 nM | – |
| – | 1 nM | – | Cc1nc2ccc(C3CC3)nc2n2c(-c3cc(C4(O)CCC4)ccc3Cl)nnc12 [Example 88] | > 10000 nM | – |
| 2.17 h | – | 187 nM | Cc1ccc2nc(C)c3nnc(-c4cc(C5(O)CCC5)ccc4Cl)n3c2n1 [Example 89] | – | – |
| 2.17 h | 86 nM | 6110 nM | Cc1nc2cccnc2n2c(-c3cc(C4(O)CCOCC4)ccc3Cl)nnc12 [Example 93] | > 10000 nM | – |
| 2.17 h | 103 nM | 2260 nM | Cc1ccc2nc(C)c3nnc(-c4cc(C5(O)CCC5)ccc4C)n3c2n1 [Example 102] | – | – |

| Compound | Half-life - t½ [1] | IC50 (PDE2A) | IC50 (PDE10) | IC50 (hERG channel) | also measured |
| --- | --- | --- | --- | --- | --- |
| Cc1ccc(C(C)(C)CO)cc1-c1nnc2c(C)nc3ccc(C4CC4)nc3n12 [Example 100] | – | 17 nM | 3860 nM | – | half-life at 1 μM [1]: 0.2 h |
